The structures appear in SMILES notation.

The experiment concerns the target T1, dihydrolipoamide acyltransferase (DlaT) (Mycobacterium tuberculosis, UniProt P9WIS7).
T1 sequence (P9WIS7 1-553): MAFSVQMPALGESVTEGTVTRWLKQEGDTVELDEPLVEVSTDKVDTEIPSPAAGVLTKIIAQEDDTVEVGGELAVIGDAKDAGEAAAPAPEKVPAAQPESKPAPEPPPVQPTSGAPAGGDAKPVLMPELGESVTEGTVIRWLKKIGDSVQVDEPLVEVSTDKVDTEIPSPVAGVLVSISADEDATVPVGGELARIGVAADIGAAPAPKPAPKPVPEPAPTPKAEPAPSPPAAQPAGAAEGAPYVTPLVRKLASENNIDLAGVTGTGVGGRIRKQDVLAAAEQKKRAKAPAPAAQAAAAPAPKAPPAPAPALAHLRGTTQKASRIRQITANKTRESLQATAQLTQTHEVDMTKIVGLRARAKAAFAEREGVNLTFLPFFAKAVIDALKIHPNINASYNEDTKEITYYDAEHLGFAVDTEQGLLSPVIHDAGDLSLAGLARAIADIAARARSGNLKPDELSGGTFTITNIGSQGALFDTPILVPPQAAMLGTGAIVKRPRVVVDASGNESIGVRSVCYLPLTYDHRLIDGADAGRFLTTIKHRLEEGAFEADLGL
Kind of experiment: DlaT inhibition (Dlat IC50); DTNB peroxidase assay with Lpd, DlaT and AhpD. The class given is biochemical. The following applies: Table 1, Compounds A1 to A294; read-out: Dlat IC50 category.
In the case of `CCOc1ccc(-c2ccc(C=C3SC(=S)N(c4cc(C(=O)O)ccc4F)C3=O)o2)cc1` [Compound A218], the IC50 is less than 10 µM.
For the molecule `O=C(O)c1cccc(N2C(=O)C(=Cc3ccc(-c4ccc(OCc5ccccc5)cc4)o3)SC2=S)c1` [Compound A219], the IC50 was 11 to 40 µM.
With `O=C(O)c1ccc(F)c(N2C(=O)C(=Cc3ccc(-c4ccc(OCc5ccccc5)cc4)o3)SC2=S)c1` [Compound A220], the IC50 lay in the range of 11 to 40 µM.
For `O=C(O)c1cc(N2C(=O)C(=Cc3ccc(-c4ccccc4Cl)o3)SC2=S)cc(C(F)(F)F)c1` [Compound A221] the value was 11 to 40 µM.
With `O=C(O)c1cc(N2C(=O)C(=Cc3ccc(-c4ccccc4F)o3)SC2=S)cc(C(F)(F)F)c1` [Compound A222], the half-inhibitory concentration (IC50) was less than 10 µM.
For `O=C(O)c1cc(N2C(=O)C(=Cc3ccc(-c4ccc(Cl)cc4)o3)SC2=S)cc(C(F)(F)F)c1` [Compound A223] the value was 11 to 40 µM; for `Cc1ccc(-c2ccc(C=C3SC(=S)N(c4cc(C(=O)O)cc(C(F)(F)F)c4)C3=O)o2)cc1` [Compound A224], less than 10 µM.
In the case of `CCc1ccc(-c2ccc(C=C3SC(=S)N(c4cc(C(=O)O)cc(C(F)(F)F)c4)C3=O)o2)cc1` [Compound A225] it was 11 to 40 µM; in that of `CCCCOc1ccc(-c2ccc(C=C3SC(=S)N(c4cccc(C(=O)O)c4)C3=O)o2)cc1` [Compound A226], more than 41 µM.
For `CCCCOc1ccc(-c2ccc(C=C3SC(=S)N(c4cc(C(=O)O)ccc4F)C3=O)o2)cc1` [Compound A227] the value was 11 to 40 µM.
Consider `CS(=O)(=O)c1ccc(-c2ccc(C=C3SC(=S)N(c4cccc(C(=O)O)c4)C3=O)o2)cc1` [Compound A228], for which the IC50 is less than 10 µM.
For `CS(=O)(=O)c1ccc(-c2ccc(C=C3SC(=S)N(c4cc(C(=O)O)ccc4F)C3=O)o2)cc1` [Compound A229] the value was 11 to 40 µM; for `O=C(O)c1cc(C(=O)O)cc(N2C(=O)C(=Cc3ccc(-c4ccccc4Cl)o3)SC2=S)c1` [Compound A230], less than 10 µM; for `O=C(O)c1cc(C(=O)O)cc(N2C(=O)C(=Cc3ccc(-c4ccccc4F)o3)SC2=S)c1` [Compound A231], more than 41 µM.
Take `O=C(O)c1cc(C(=O)O)cc(N2C(=O)C(=Cc3ccc(-c4ccc(Cl)cc4)o3)SC2=S)c1` [Compound A232]: the 50% inhibitory concentration (IC50) is 11 to 40 µM.
Regarding `CCc1ccc(-c2ccc(C=C3SC(=S)N(c4cc(C(=O)O)cc(C(=O)O)c4)C3=O)o2)cc1` [Compound A233], the IC50 was less than 10 µM.
For the molecule `Cc1ccccc1-c1ccc(C=C2SC(=S)N(c3cc(C(=O)O)cc(C(F)(F)F)c3)C2=O)o1` [Compound A234], the IC50 was less than 10 µM.
As to `Cc1ccccc1-c1ccc(C=C2SC(=S)N(c3cc(C(=O)O)cc(C(=O)O)c3)C2=O)o1` [Compound A235], the IC50 is less than 10 µM.
In the case of `CSc1cccc(-c2ccc(C=C3SC(=S)N(c4cccc(C(=O)O)c4)C3=O)o2)c1` [Compound A236], the IC50 is less than 10 µM.
Regarding `CSc1cccc(-c2ccc(C=C3SC(=S)N(c4cc(C(=O)O)ccc4F)C3=O)o2)c1` [Compound A237], the half-maximal inhibitory concentration (IC50) is less than 10 µM.
Consider `CSc1ccc(-c2ccc(C=C3SC(=S)N(c4cccc(C(=O)O)c4)C3=O)o2)cc1` [Compound A238], for which the IC50 was less than 10 µM.
As for `CSc1ccc(-c2ccc(C=C3SC(=S)N(c4cc(C(=O)O)ccc4F)C3=O)o2)cc1` [Compound A239], the IC50 was less than 10 µM.
Turning to `CC(C)Oc1ccc(-c2ccc(C=C3SC(=S)N(c4cccc(C(=O)O)c4)C3=O)o2)cc1` [Compound A240], the half-inhibitory concentration (IC50) was less than 10 µM.
On to `CC(C)Oc1ccc(-c2ccc(C=C3SC(=S)N(c4cc(C(=O)O)ccc4F)C3=O)o2)cc1` [Compound A241], for which the IC50 was less than 10 µM.
In the case of `Cc1ccc(-c2cccc(C=C3SC(=S)N(c4cccc(C(=O)O)c4)C3=O)c2)cc1` [Compound A242] it was 11 to 40 µM; in that of `Cc1ccc(-c2cccc(C=C3SC(=S)N(c4cc(C(=O)O)ccc4F)C3=O)c2)cc1` [Compound A243], less than 10 µM; in that of `O=C(O)c1cccc(N2C(=O)C(=Cc3ccc(-c4ccccc4-c4ccccc4)o3)SC2=S)c1` [Compound A244], less than 10 µM.
For `O=C(O)c1ccc(F)c(N2C(=O)C(=Cc3ccc(-c4ccccc4-c4ccccc4)o3)SC2=S)c1` [Compound A245] the value was less than 10 µM; for `Cc1ccc(-c2ccc(C=C3SC(=S)N(c4cccc(C(=O)O)c4)C3=O)cc2)cc1` [Compound A246], less than 10 µM.
`Cc1ccc(-c2ccc(C=C3SC(=S)N(c4cc(C(=O)O)ccc4F)C3=O)cc2)cc1` [Compound A247]: the concentration for half-maximal inhibition (IC50) fell in the range of 11 to 40 µM.
Turning to `Cc1ccc(-c2ccc(C=C3SC(=S)N(c4cc(C(=O)O)cc(C(F)(F)F)c4)C3=O)cc2)cc1` [Compound A248], the IC50 was less than 10 µM.
On to `CCc1ccccc1-c1ccc(C=C2SC(=S)N(c3cccc(C(=O)O)c3)C2=O)o1` [Compound A249], for which the IC50 was less than 10 µM.
Take `CCc1ccccc1-c1ccc(C=C2SC(=S)N(c3cc(C(=O)O)ccc3F)C2=O)o1` [Compound A250]: the IC50 was less than 10 µM.
For `O=C(O)c1cccc(N2C(=O)C(=Cc3nc(-c4ccccc4)cs3)SC2=S)c1` [Compound A251], the IC50 lay in the range of 11 to 40 µM.
Turning to `O=C(O)c1ccc(F)c(N2C(=O)C(=Cc3nc(-c4ccccc4)cs3)SC2=S)c1` [Compound A252], the IC50 lay in the range of 11 to 40 µM.
With `COc1ccc(C)cc1-c1ccc(C=C2SC(=S)N(c3cccc(C(=O)O)c3)C2=O)o1` [Compound A253], the IC50 was less than 10 µM.
In the case of `COc1ccc(C)cc1-c1ccc(C=C2SC(=S)N(c3cc(C(=O)O)ccc3F)C2=O)o1` [Compound A254] it was less than 10 µM; in that of `O=C(O)c1cc(N2C(=O)C(=Cc3ccc(-c4ccccc4Cl)o3)SC2=S)ccc1F` [Compound A255], 11 to 40 µM; in that of `O=C(O)c1cc(N2C(=O)C(=Cc3ccc(-c4ccccc4F)o3)SC2=S)ccc1F` [Compound A256], 11 to 40 µM.
In the case of `Cc1ccccc1-c1ccc(C=C2SC(=S)N(c3ccc(F)c(C(=O)O)c3)C2=O)o1` [Compound A257], the concentration for half-maximal inhibition (IC50) was 11 to 40 µM.
For `O=C(O)c1cc(N2C(=O)C(=Cc3ccc(-c4ccc(Cl)cc4)o3)SC2=S)ccc1F` [Compound A258] the value was less than 10 µM; for `O=C(O)c1cc(N2C(=O)C(=Cc3ccc(-c4ccc(F)cc4)o3)SC2=S)ccc1F` [Compound A259], 11 to 40 µM; for `Cc1ccc(-c2ccc(C=C3SC(=S)N(c4ccc(F)c(C(=O)O)c4)C3=O)o2)cc1` [Compound A260], less than 10 µM.
Regarding `CC(=O)Nc1ccc(-c2ccc(C=C3SC(=S)N(c4cc(C(=O)O)cc(C(F)(F)F)c4)C3=O)o2)cc1` [Compound A261], the half-inhibitory concentration (IC50) was less than 10 µM.
In the case of `CC(=O)Nc1ccc(-c2ccc(C=C3SC(=S)N(c4ccc(F)c(C(=O)O)c4)C3=O)o2)cc1` [Compound A262], the half-maximal inhibitory concentration (IC50) lay within 11 to 40 µM.
In the case of `CCCCc1ccc(-c2ccc(C=C3SC(=S)N(c4cccc(C(=O)O)c4)C3=O)o2)cc1` [Compound A263], the IC50 is less than 10 µM.
On to `CCCCc1ccc(-c2ccc(C=C3SC(=S)N(c4cc(C(=O)O)ccc4F)C3=O)o2)cc1` [Compound A264], for which the half-inhibitory concentration (IC50) was less than 10 µM.
For the molecule `CCCCc1ccc(-c2ccc(C=C3SC(=S)N(c4ccc(F)c(C(=O)O)c4)C3=O)o2)cc1` [Compound A265], the half-inhibitory concentration (IC50) was less than 10 µM.
As for `CCCCc1ccc(-c2ccc(C=C3SC(=S)N(c4cc(C(=O)O)cc(C(F)(F)F)c4)C3=O)o2)cc1` [Compound A266], the concentration for half-maximal inhibition (IC50) was less than 10 µM.
In the case of `CS(=O)(=O)c1ccc(-c2ccc(C=C3SC(=S)N(c4cc(C(=O)O)cc(C(F)(F)F)c4)C3=O)o2)cc1` [Compound A267] it was less than 10 µM; in that of `CS(=O)(=O)c1ccc(-c2ccc(C=C3SC(=S)N(c4ccc(F)c(C(=O)O)c4)C3=O)o2)cc1` [Compound A268], less than 10 µM.
`CCCc1ccc(-c2ccc(C=C3SC(=S)N(c4cccc(C(=O)O)c4)C3=O)o2)cc1` [Compound A269]: the half-maximal inhibitory concentration (IC50) is less than 10 µM.
On to `CCCc1ccc(-c2ccc(C=C3SC(=S)N(c4cc(C(=O)O)ccc4F)C3=O)o2)cc1` [Compound A270], for which the half-maximal inhibitory concentration (IC50) was less than 10 µM.
Turning to `CCCc1ccc(-c2ccc(C=C3SC(=S)N(c4ccc(F)c(C(=O)O)c4)C3=O)o2)cc1` [Compound A271], the IC50 was less than 10 µM.
`CCCc1ccc(-c2ccc(C=C3SC(=S)N(c4cc(C(=O)O)cc(C(F)(F)F)c4)C3=O)o2)cc1` [Compound A272]: the half-maximal inhibitory concentration (IC50) is 11 to 40 µM.
Consider `CN(C)c1ccc(N2C(=O)C(=Cc3ccc(-c4ccccc4Cl)o3)SC2=S)cc1C(=O)O` [Compound A274], for which the IC50 is 11 to 40 µM.
For `CN(C)c1ccc(N2C(=O)C(=Cc3ccc(-c4cccc(Cl)c4)o3)SC2=S)cc1C(=O)O` [Compound A275] the value was 11 to 40 µM; for `O=C(O)c1cc(N2C(=O)C(=Cc3ccc(-c4ccccc4OCc4ccccc4)o3)SC2=S)ccc1F` [Compound A279], less than 10 µM.
In the case of `O=C(O)c1cc(N2C(=O)C(=Cc3ccc(-c4ccccc4C(F)(F)F)o3)SC2=S)ccc1F` [Compound A280] it was 11 to 40 µM.
In the case of `O=C(O)c1cc(N2C(=O)C(=Cc3ccc(-c4ccccc4OC(F)(F)F)o3)SC2=S)ccc1F` [Compound A281], the 50% inhibitory concentration (IC50) is less than 10 µM.
Consider `CSc1ccccc1-c1ccc(C=C2SC(=S)N(c3ccc(F)c(C(=O)O)c3)C2=O)o1` [Compound A282], for which the IC50 was less than 10 µM.
For `O=C(O)c1cc(N2C(=O)C(=Cc3ccc(-c4ccccc4Oc4ccccc4)o3)SC2=S)ccc1F` [Compound A283], the IC50 was less than 10 µM.

Source of the values: patent US8338465B2, “Cyclic carboxylic acid rhodanine derivatives for the treatment and prevention of tuberculosis” (priority 2006, dated 2012).
